From patent publication US20080167376A1, “Methods and products which utilize N-acyl-L-aspartic acid” (DMI BIOSCIENCES, INC., priority 2003, published 2008)

Experiments:
[1] = test system: PGE2 production in ionomycin-stimulated STTG cells; experiment: Prostaglandin E2 assay (PGE2 EIA) in ionomycin-stimulated STTG cells; assay type: cell-based, human; details: for decrease in PGE2 release / effect on total PGE2 release: FIG. 2
Experimental: FIG. 1. Percent inhibition of prostaglandin E2 (PGE2) production in ionomycin-stimulated STTG cells. PGE2 production was assayed in ionomycin-stimulated STTG cells treated with N-acetyl-L-aspartate (NAA), aspirin (Asp) or dexamethasone (Dex) using a PGE2 enzyme immunoassay described in Example 1. Cells were pre-incubated for 1 hour with NAA, Asp or Dex and then stimulated with 1 μM ionomycin at 37° C., 10% CO2 for 24 hours. Percent inhibition of PGE2 production was measured compared to ionomycin-stimulated STTG cells in the absence of NAA, Asp or Dex. Data represent mean ±SD of three separate experiments. Asterisks indicate a significant difference between untreated, ionomycin-stimulated STTG cells and treated, ionomycin-stimulated STTG cells: *p<0.01. Iono=ionomycin.
FIG. 2. Effect of glutamate receptor antagonists and NAA on PGE2 release in STTG cells stimulated with ionomycin. PGE2 production was assayed in ionomycin-stimulated STTG cells treated with NAA or potential glutamate receptor antagonists (AP-4 and GDE) using a PGE2 enzyme immunoassay described in Example 1. Cells were pre-incubated for 1 hour with NAA or the potential glutamate receptor antagonists and then cells were stimulated with 1 μM ionomycin at 37° C., 10% CO2 for 24 hours. Percent inhibition of PGE2 production was measured compared to ionomycin-stimulated STTG cells in the absence of NAA or potential glutamate receptor antagonists. Data represent mean ±SD of three separate experiments. Asterisks indicate a significant difference between untreated, ionomycin-stimulated STTG cells and treated, ionomycin-stimulated STTG cells: *p<0.01. AP-4=L-2-amino-4-phosphonobutyric acid, and GDE=L-glutamic acid diethyl ester.
Prostaglandin E2 Assay. Human STTG astroglial cells (CRL-1718, American […], Rockville, Mass.) were grown in 75 cm^2 flasks (10% CO2, 37° C.) containing AGM medium (BioWhittaker, Walkersville, Md.) to near confluency (>90%) prior to subculturing with trypsin/EDTA. Cells were plated on a 24-well plate at 50,000 cells/well and incubated for two days to near confluency prior to dosing with inhibitors. N-Acetyl aspartate (NAA, Sigma-Aldrich, St. Louis, Mo.) was dissolved in AGM medium and brought back to a pH of 7.4. Stock solutions of aspirin were dissolved in DMSO and then diluted in culture medium. DMSO concentrations were never >0.5% in the medium bathing the cells. Cells were then dosed with potential prostaglandin E2 (PGE2) inhibitors (NAA, L-2-Amino-4-phosphonobutyric acid [L-AP-4, Sigma-Aldrich, St. Louis, Mo.], L-glutamic acid diethyl ester [GDE, generous gift from Nagaraja K. R. Rao, DMI Synthesis UK Ltd.], aspirin, or dexamethasone). After a 1-hour incubation, the cells were then stimulated with 1 μM ionomycin (Sigma-Aldrich, St. Louis, Mo.) for 24 hours at 37° C. Total volume per well was 1 mL. Then, 0.5 mL of culture medium was removed from each well and immediately assayed for PGE2 using the Prostaglandin E2 enzyme immunoassay (EIA) system (Amersham, Piscataway, N.J.). The remaining medium containing the cells was assayed for cell viability using cell titer reagent (G358A, Promega, Madison, Wis.).

COX-2 = biological target: T1, COX-2 (Homo sapiens, UniProt P35354); experiment: COX-2 activity assay (PGE2 EIA system); assay type: biochemical; details: concentrations up to 20 mM; 0.05 units COX-2, 1 μM arachidonic acid; data not shown
T1 construct: purchased Oxford Biomedical, Oxford, Mich
T1 sequence (P35354 18-604): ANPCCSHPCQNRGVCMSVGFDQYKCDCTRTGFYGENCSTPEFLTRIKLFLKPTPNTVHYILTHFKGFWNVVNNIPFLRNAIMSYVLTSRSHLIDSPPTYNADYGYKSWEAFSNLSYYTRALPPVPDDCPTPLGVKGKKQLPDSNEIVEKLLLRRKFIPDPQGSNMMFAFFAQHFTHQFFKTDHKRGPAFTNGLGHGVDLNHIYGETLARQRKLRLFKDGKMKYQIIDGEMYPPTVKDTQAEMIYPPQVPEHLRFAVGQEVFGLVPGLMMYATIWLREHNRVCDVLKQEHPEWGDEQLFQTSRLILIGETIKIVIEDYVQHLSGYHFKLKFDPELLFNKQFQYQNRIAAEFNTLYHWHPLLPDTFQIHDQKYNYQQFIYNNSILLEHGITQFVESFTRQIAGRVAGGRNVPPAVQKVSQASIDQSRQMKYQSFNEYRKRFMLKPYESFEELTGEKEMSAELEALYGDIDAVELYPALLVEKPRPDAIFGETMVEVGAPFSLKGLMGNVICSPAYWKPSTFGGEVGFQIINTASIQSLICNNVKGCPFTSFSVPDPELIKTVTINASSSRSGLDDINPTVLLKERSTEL
Experimental: COX-2 Activity Assay. Modifying the method of Ouellet and co-workers (Proc. Natl. Acad. Sci. USA, 98:14583-14588 (2001)), COX-2 activity was determined using the PGE2 EIA system. Briefly, COX-2 (Oxford Biomedical, Oxford, Mich.) was incubated at 37° C. for 5 minutes with arachidonic acid (AA), 500 μM phenol, and 1 μM hematin in a 100 mM phosphate buffer (pH 6.5). The reaction was stopped with a solution containing dH2O/MeOH/1 M citric acid (30:4:1). After optimization of COX-2 and AA, 0.05 units of COX-2 per incubation and 1 μM of AA were determined to be optimal. Varying concentrations of NAA and aspirin (pH 6.5) were pre-incubated with COX-2, hematin, and phenol for 15 minutes at 37° C. prior to AA addition. The reaction was stopped after 5-minute incubation with AA. PGE2 levels were determined using PGE2 EIA system as described.
Effect of NAA on COX-2 activity and mRNA. To determine if NAA was inhibiting the cyclooxygenase enzyme directly, a COX-2 activity assay was developed using the PGE2 EIA system. After optimizing for COX-2 and arachidonic acid (AA), a concentration of 0.05 units/incubation of COX-2 and 1 μM of AA was determined to be optimal.

[2] = test system: COX-2 protein in STTG cells; experiment: Western blot of total COX-2 protein in STTG cells; assay type: cell-based, human; details: 24 h, 200 μM aspirin, 10 mM NAA (FIG. 3); for effect on total amount of COX-2 protein: STTG cells stimulated with 1 or 2 ng/ml IL-1β; for effect on resting COX-2 protein: unstimulated STTG cells
Experimental: FIG. 3. Representative Western blot for total COX-2 protein in IL-1β-stimulated STTG cells treated with NAA and aspirin. Cells were incubated for 24 hours at 37° C., 10% CO2. Cells were dosed as follows: untreated (lane 1), 200 μM aspirin (lane 2), 10 mM NAA (lane 3), 1 ng/ml IL-1β (lane 4), 2 ng/ml IL-1β (lane 5), 1 ng/ml IL-1β+200 μM aspirin (lane 6), 2 ng/ml IL-1β+200 μM aspirin (lane 7), 1 ng/ml IL-1β+10 mM NAA (lane 8), or 2 ng/ml IL-1β+10 mM NAA (lane 9). Cells were lysed and COX-2 protein was immunoprecipitated overnight (1:500 goat anti-human COX-2) from 400 μg total lysate protein. Immunoprecipitate was loaded on 4-20% tris-glycine gel and transferred overnight onto nitrocellulose membrane. Total COX-2 protein was quantitated using a goat anti-human COX-2 antibody (1:100) and 1:5,000 rabbit anti-goat IgG. The membrane was visualized by chemiluminescence.
Western Blot of COX-2. STTG cells were treated with either NAA or aspirin and immediately stimulated with 1 or 2 ng/ml IL-1β (Sigma-Aldrich, St. Louis, Mo.). After a 24-hour incubation at 37° C. (10% CO2), cells were lysed and total protein was quantitated by BCA (Pierce, Rockford, Ill.). Then, 0.5 mg lysate was immunoprecipitated using 1:500 goat anti-human COX-2 (Santa Cruz Biotechnology, Santa Cruz, Calif.) and Protein AG beads (Pierce, Rockford, Ill.) overnight at 4° C. Samples were loaded on a 4-20% Tris-Glycine gel (Invitrogen, Carlsbad, Calif.) and transferred to a nitrocellulose membrane overnight. The membrane was blocked with 5% Blotto (Santa Cruz Biotechnology, Santa Cruz, Calif.), and COX-2 was detected using 1:100 goat anti-human COX-2 (Santa Cruz Biotechnology, Santa Cruz, Calif.) and 1:5,000 rabbit anti-goat IgG HRP (Santa Cruz Biotechnology, Santa Cruz, Calif.). The membrane was visualized using ECL (Amersham, Piscataway, N.J.) and exposed to X-ray film.

[3] = test system: activated NFκB in IL-1β-stimulated STTG cells; experiment: NFκB assay (ELISA-based) in IL-1β-stimulated STTG cells; assay type: cell-based, human; details: 1 ng/ml IL-1β, 24 h, FIG. 4
Experimental: FIG. 4. Effect of NAA on NFκB levels in STTG cells stimulated with IL-1. Cells were dosed with NAA and immediately stimulated with 1 ng/ml IL-1 for 24 hours at 37° C., 10% CO2. Cells were lysed, and 10 μg of total protein was assayed for activated NFκB levels using an ELISA-based method. Data represent mean ±SD of three separate experiments. Percentages are percent of inhibition of production of activated NFκB. Asterisks indicate a significant difference between untreated, IL-1β-stimulated STTG cells and NAA-treated, IL-1β-stimulated STTG cells: *p<0.005.
NFκB Assay. STTG cells were treated with NAA and stimulated immediately with 1 ng/ml IL-1β. After a 24-hour incubation, cells were lysed and total protein was quantitated using the BCA™ Protein Assay Kit (Pierce, Rockford, Ill.). Then, 10 μg of protein lysate was assayed for NFκB using the TransAM™ NFκB Family Transcription Factor Assay Kit (Catalog No. 43296, Active Motif, Carlsbad, Calif.).
Effect of NAA on NFκB activation. Activated NFκB was quantitated using a 96-well plate coated with an oligonucleotide that contains an NFκB consensus-binding site. This site specifically binds activated NFκB contained in cell extracts.

[4] = test system: COX-2 mRNA in STTG astroglial cells; experiment: RT-PCR of COX-2 in STTG cells; assay type: cell-based, human; details: 5 and 10 mM, data not shown
Experimental: RT-PCR of COX-2. STTG cells were grown to near confluency on 25 cm^2 cell culture flasks. Cells were dosed with 5 or 10 mM NAA and incubated for 4 or 24 hours at 37° C., 10% CO2. RNA was isolated using Rneasy Mini Kit (Qiagen, Valencia, Calif.) and quantitated using A260/A280 assay. Then, 2 μg of RNA was converted to cDNA using the Omniscript Reverse Transcriptase Kit (Qiagen, Valencia, Calif.). PCR was next performed using HotStarTaq Master Mix (Qiagen, Valencia, Calif.). COX-2 forward ([…] [SEQ ID NO:1]) and reverse primers ([…] [SEQ ID NO:2]) were obtained from Qiagen (Valencia, Calif.) and used at a concentration of 0.5 μM. The PCR thermal cycler program consisted of: 1) 1 denaturation cycle of 15 minutes at 95° C.; 2) 30 cycles of 94° C. (30 sec denaturation), 55° C. (30 sec annealing), and 72° C. (30 sec elongation); and 3) 1 elongation cycle of 10 minutes at 72° C. PCR product was then loaded on a 2% (w/v) agarose gel and stained with ethidium bromide.

[5] = 5 mM, ionomycin-stimulated STTG cells
[6] = 10 mM, ionomycin-stimulated STTG cells
[7] = ionomycin-stimulated STTG cells, result in words

SMILES	decrease in PGE2 release [1, 5] [%]	decrease in PGE2 release [1, 6] [%]	effect on total PGE2 release [1, 7]	effect on total amount of COX-2 protein [2]	effect on resting COX-2 protein [2]	further results
CCOC(=O)CC[C@H](N)C(=O)OCC [GDE, L-glutamic acid diethyl ester, reference compound]	40	60	did decrease			
N[C@@H](CCP(=O)(O)O)C(=O)O [L-AP-4, L-2-amino-4-phosphonobutyric acid, reference compound]			did decrease			
CC(=O)N[C@@H](CC(=O)O)C(=O)O [NAA, N-acetyl-L-aspartic acid]	60	90		decreased	no effect	effect on COX-2 activity (COX-2): no effect; decrease in NFκB production (activated NFκB) ([3]; 10 mM): 17.5%; decrease in NFκB production (activated NFκB) ([3]; 20 mM): 40%; decrease in PGE2 production ([1]; 5 mM, 1 h pre-incubation, 1 μM ionomycin 24 h, STTG cells, FIG. 1): 56%; decrease in PGE2 production ([1]; 10 mM, 1 h pre-incubation, 1 μM ionomycin 24 h, STTG cells, FIG. 1): 76%; inhibition at 20000 µM ([1]; Homo sapiens, 20 mM, 1 h pre-incubation, 1 μM ionomycin 24 h, STTG cells, FIG. 1, read-out: decrease in PGE2 production (inhibition)): > 95%; effect on total COX-2 mRNA [4]: did not decrease
CC(=O)Oc1ccccc1C(=O)O [aspirin, reference compound]				decreased	decreasing effect	inhibition of cyclooxygenases as evidenced by lack of PGE2 production ([1]; ionomycin-stimulated STTG cells, FIG. 1, result in words): complete inhibition
